Measured values reported in patent publication US20250270206A1, “COMPOSITIONS AND METHODS FOR INHIBITION OF RAS” (TheRas, Inc., priority 2022, published 2025).

Key:
[1] = target: T1, GDP-loaded KRAS4b (amino acids 1-169) G12C/C118S (Homo sapiens, UniProt P01116, C118S/G12C); assay: MALDI-TOF MS covalent Cys12 modification, GDP-loaded KRAS G12C; type: binding; conditions: 15 minutes reaction time, 1 μM protein, 1:2.5 protein to compound ratio
T1 construct: KRAS4b (amino acids 1-169) G12C/C118S protein; made in house
How it was run: (§1)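 1 μM KRAS4b(1-169) G12C/C118S loaded with GTP, GppNHp or GDP in 20 mM HEPES, 150 mM NaCl, 1 mM MgCl2, pH 7.3, treated at a 1:2.5 protein:compound ratio in the dark at room temperature. Linear-mode MALDI-TOF; percent modification = adduct peak height over total protein peak heights, at 15 min.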

[2] = target: T2, GppNHp-loaded KRAS4b (amino acids 1-169) G12C/C118S (Homo sapiens, UniProt P01116, C118S/G12C); assay: MALDI-TOF MS covalent Cys12 modification, GppNHp-loaded KRAS G12C; type: binding; conditions: 15 minutes reaction time, 1 μM protein, 1:2.5 protein to compound ratio
T2 construct: KRAS4b (amino acids 1-169) G12C/C118S protein; made in house
How it was run: as §1

[3] = target: T3, GTP-loaded KRAS4b (amino acids 1-169) G12C/C118S (Homo sapiens, UniProt P01116, C118S/G12C); assay: MALDI-TOF MS covalent Cys12 modification, GTP-loaded KRAS G12C; type: binding; conditions: 15 minutes reaction time, 1 μM protein, 1:2.5 protein to compound ratio
T3 construct: KRAS4b (amino acids 1-169) G12C/C118S protein; made in house
How it was run: as §1

pERK in NCI-H358 cells = assay: Cell-based pERK HTRF assay; conditions: Homo sapiens, 0.5 h, 30 min incubation
How it was run: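 KRAS G12C NCI-H358 cells in RPMI/10% FBS treated 30 min with compound, 9-point 3-fold series from 75 μM final top, 0.25% DMSO. Lysates read for phospho-ERK by HTRF (d2/Eu cryptate antibodies, 615 nm emission) after 4–24 h room-temperature incubation.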

[4] = target: T4, Avi-KRAS G12C (1-169) GppNHp/RAF1 RBD-3×FLAG (52-151) (Homo sapiens, UniProt P01116, G12C); assay: KRAS G12C-effector (RAF1 RBD) protein:protein interaction HTRF disruption assay; type: biochemical; conditions: PPI HTRF
T4 construct: Avi-KRAS G12C (1-169) GppNHp
How it was run: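 50 nM Avi-KRAS G12C (1-169) loaded with GppNHp, then 75 nM RAF1 RBD-3×FLAG, then HTRF detection mix, each step 1 h at room temperature. Buffer was 50 mM Tris pH 7.5, 100 mM NaCl, 5 mM MgCl2, 0.1% BSA, 0.01% Tween 20, 10% DMSO. Compounds titrated 30-0.02 μM (3× series). Read at 615 nm emission, reported as % activity vs DMSO (100%).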

SMILES	GDP-KRAS G12C percent of modification [1]	GppNHp-KRAS G12C percent of modification [2]	GTP-KRAS G12C percent of modification [3]	IC50 (pERK in NCI-H358 cells)	IC50 [4]
C=CC(=O)N1CCC(N(CC)c2nc(OC[C@@]34CCCN3C[C@H](F)C4)nc3c(Cl)c(-c4ccc(F)c5sc(N)c(C#N)c45)ncc23)[C@H]1CC (some centres unmarked) [Compound 41]	A (percent of modification ≥70%)	A (percent of modification ≥70%)	A (percent of modification ≥70%)	100 to 1000 nM	≤ 500 nM
C=CC(=O)N1CC[C@@H](N(C)c2nc(OC[C@@]34CCCN3C[C@H](F)C4)nc3c(F)c(-c4ccc(F)c5sc(N)c(C#N)c45)ncc23)[C@H]1CC [Compound 42]	A (percent of modification ≥70%)	A (percent of modification ≥70%)	A (percent of modification ≥70%)	100 to 1000 nM	≤ 500 nM
C=CC(=O)N1CC[C@@H](N(CC)c2nc(OC[C@@]34CCCN3C[C@H](F)C4)nc3c(Cl)c(-c4ccc(F)c5sc(N)c(C#N)c45)ncc23)[C@H]1CC [Compound 43]	A (percent of modification ≥70%)	A (percent of modification ≥70%)	A (percent of modification ≥70%)	100 to 1000 nM	≤ 500 nM
C=CC(=O)N1CC[C@@H](N(C)c2nc(OC[C@@]34CCCN3C[C@H](F)C4)nc3c(F)c(-c4ccc(F)c5sc(N)c(C#N)c45)ncc23)[C@@H]1CC [Compound 44]	A (percent of modification ≥70%)	C (10%≤percent of modification <50%)	D (percent of modification <10%)	100 to 1000 nM	500 to 5000 nM
C=CC(=O)N1CC[C@@H](N(C)c2nc(OC[C@@]34CCCN3C[C@H](F)C4)nc3c(Cl)c(-c4ccc(F)c5sc(N)c(C#N)c45)ncc23)[C@@H]1CC [Compound 45]	A (percent of modification ≥70%)	C (10%≤percent of modification <50%)	D (percent of modification <10%)	100 to 1000 nM	500 to 5000 nM
C=CC(=O)N1CC[C@@H](N(CC)c2nc(OC[C@@]34CCCN3C[C@H](F)C4)nc3c(F)c(-c4ccc(F)c5sc(N)c(C#N)c45)ncc23)[C@H]1CC [Compound 46]	A (percent of modification ≥70%)	A (percent of modification ≥70%)	A (percent of modification ≥70%)	100 to 1000 nM	≤ 500 nM
C=CC(=O)N1CC[C@@H](N(C)c2nc(OC[C@@]34CCCN3C[C@H](F)C4)nc3c(Cl)c(-c4ccc(F)c5sc(N)c(C#N)c45)ncc23)[C@H]1CC [Compound 47]	A (percent of modification ≥70%)	A (percent of modification ≥70%)	A (percent of modification ≥70%)	≤ 100 nM	≤ 500 nM
C=CC(=O)N1CC[C@@H](N(CC)c2nc(OC[C@@]34CCCN3C[C@H](F)C4)nc3c(F)c(-c4ccc(F)c5sc(N)c(C#N)c45)ncc23)[C@@H]1CC [Compound 48]	A (percent of modification ≥70%)	D (percent of modification <10%)	D (percent of modification <10%)	100 to 1000 nM	500 to 5000 nM
C=CC(=O)N1CC[C@@H](N(CC)c2nc(OC[C@@]34CCCN3C[C@H](F)C4)nc3c(Cl)c(-c4ccc(F)c5sc(N)c(C#N)c45)ncc23)[C@@H]1CC [Compound 49]	A (percent of modification ≥70%)	D (percent of modification <10%)	D (percent of modification <10%)	100 to 1000 nM	500 to 5000 nM
C=CC(=O)N1CC[C@@H](N(CC)c2nc(OC[C@@]34CCCN3C[C@H](F)C4)nc3c(F)c(-c4ccc(F)c5sc(N)c(C#N)c45)ncc23)[C@@H]1C [Compound 50]	A (percent of modification ≥70%)	A (percent of modification ≥70%)	C (10%≤percent of modification <50%)	≤ 100 nM	≤ 500 nM
C=CC(=O)N1CC[C@@H](N(CC)c2nc(OC[C@@]34CCCN3C[C@H](F)C4)nc3c(Cl)c(-c4ccc(F)c5sc(N)c(C#N)c45)ncc23)[C@@H]1C [Compound 51]	A (percent of modification ≥70%)	A (percent of modification ≥70%)	C (10%≤percent of modification <50%)	≤ 100 nM	≤ 500 nM
C=CC(=O)N1CC[C@@H](N(C)c2nc(OC[C@@]34CCCN3C[C@H](F)C4)nc3c(F)c(-c4ccc(F)c5sc(N)c(C#N)c45)ncc23)[C@@H]1C [Compound 52]	A (percent of modification ≥70%)	A (percent of modification ≥70%)	B (50% percent of modification <70%)	≤ 100 nM	≤ 500 nM
C=CC(=O)N1CC[C@@H](N(C)c2nc(OC[C@@]34CCCN3C[C@H](F)C4)nc3c(Cl)c(-c4ccc(F)c5sc(N)c(C#N)c45)ncc23)[C@@H]1C [Compound 53]	A (percent of modification ≥70%)	A (percent of modification ≥70%)	B (50% percent of modification <70%)	≤ 100 nM	≤ 500 nM
